# Source: patent publication US8426420B2, “Heterocyclic pyrazole-carboxamidesas P2Y12 antagonists” (Sanofi, priority 2007, dated 2013)
# Legend:
# [1] = system: human platelet rich plasma; experiment: Inhibition of human platelet aggregation, "Born"-method using single cuvettes; type: cell-based; settings: 0.1 h, ADP-induced aggregation, 6 minutes
# human P2Y12 receptor = human P2Y12 receptor (Homo sapiens, UniProt Q9H244); experiment: Human P2Y12 recombinant cell membrane binding assay with 33P 2MeS-ADP; settings: competition against 33P 2MeS-ADP, membranes of CHO cells with recombinant human P2Y12 receptor
# Procedure, shortened: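 Competition binding against radiolabeled 2MeS-ADP (1.61 nM as added) on membranes from recombinant human P2Y12 CHO cells, 20 min RT after 15 min compound preincubation, pH 7.4. Filtration then scintillation counting; compounds tested in triplicate from 10 μM final, five-fold dilutions, curve fit with plate-defined min/max.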
# [2] = system: human platelet rich plasma; experiment: Inhibition of human platelet aggregation, 96-well assay; type: cell-based; settings: Homo sapiens, Platelet, 20 min
# Procedure, shortened: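 ADP-induced aggregation read as 650 nm absorbance every minute for 20 min at 37 °C, with shaking between reads. PRP (~3×E8 platelets/ml, diluted with PPP, ACD-A blood from healthy volunteers) was exposed to compound for 5 min before adding a 40 μM ADP stock (15 μl into 150 μl).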
# human P2Y12 receptor, sequence (Q9H244 whole entry): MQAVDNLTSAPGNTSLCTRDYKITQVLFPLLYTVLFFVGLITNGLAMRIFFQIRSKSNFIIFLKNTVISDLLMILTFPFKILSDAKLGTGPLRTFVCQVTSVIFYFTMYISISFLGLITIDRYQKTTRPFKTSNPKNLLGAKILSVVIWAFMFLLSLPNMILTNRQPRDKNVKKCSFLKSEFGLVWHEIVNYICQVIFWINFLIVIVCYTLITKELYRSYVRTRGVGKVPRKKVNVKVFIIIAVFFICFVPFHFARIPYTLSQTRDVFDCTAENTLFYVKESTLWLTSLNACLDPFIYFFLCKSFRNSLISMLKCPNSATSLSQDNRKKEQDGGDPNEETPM
Structure (SMILES),IC50 [1],IC50 (human P2Y12 receptor),IC50 [2]
"CCCOC(=O)N1CCN(C(=O)CNC(=O)c2cc(OCC(=O)N3CCC[C@H]3C(=O)NC3CCC3)n(-c3ccccc3)n2)CC1 [Example 210, 4-[2-({5-[2-((S)-2-Cyclobutylcarbamoyl-pyrrolidin-1-yl)-2-oxo-ethoxy]-1-phenyl-1H-pyrazole-3-carbonyl}-amino)-acetyl]-piperazine-1-carboxylic acid propyl ester]",30 nM,72 nM,120 nM
"CCCCOC(=O)N1CCN(C(=O)[C@H](COCC)NC(=O)c2cc(OCC(=O)N3CCC[C@H]3C(=O)NC3CCC3)n(-c3ccccc3)n2)CC1 [Example 227, 4-[(S)-2-({5-[2-((S)-2-Cyclobutylcarbamoyl-pyrrolidin-1-yl)-2-oxo-ethoxy]-1-phenyl-1H-pyrazole-3-carbonyl}-amino)-3-ethoxy-propionyl]-piperazine-1-carboxylic acid butyl ester]",130 nM,16 nM,130 nM
"CCCCOC(=O)N1CCN(C(=O)[C@@H](NC(=O)c2cc(OCC(=O)N3CCC[C@H]3C(=O)NC3CCC3)n(-c3ccccc3)n2)C2CC2)CC1 [Example 230, 4-[(S)-2-({5-[2-((S)-2-Cyclobutylcarbamoyl-pyrrolidin-1-yl)-2-oxo-ethoxy]-1-phenyl-1H-pyrazole-3-carbonyl}-amino)-2-cyclopropyl-acetyl]-piperazine-1-carboxylic acid butyl ester]",80 nM,14 nM,210 nM

# Results, then the compound that gave them:
IC50 [1],IC50 (human P2Y12 receptor),IC50 [2],Structure (SMILES)
80 nM,18 nM,280 nM,"CCCCOC(=O)N1CCN(C(=O)[C@@H](C)NC(=O)c2cc(OCC(=O)N3CCC[C@H]3C(=O)NC3CCC3)n(-c3ccccc3)n2)CC1 [Example 184, 4-[(R)-2-({5-[2-((S)-2-Cyclobutylcarbamoyl-pyrrolidin-1-yl)-2-oxo-ethoxy]-1-phenyl-1H-pyrazole-3-carbonyl}-amino)-propionyl]-piperazine-1-carboxylic acid butyl ester]"
30 nM,19 nM,70 nM,"CCCCOC(=O)N1CCN(C(=O)[C@H](CCOC)NC(=O)c2cc(OCC(=O)N3CCC[C@H]3C(=O)NC3CCC3)n(-c3ccccc3)n2)CC1 [Example 231, 4-[(S)-2-({5-[2-((S)-2-Cyclobutylcarbamoyl-pyrrolidin-1-yl)-2-oxo-ethoxy]-1-phenyl-1H-pyrazole-3-carbonyl}-amino)-4-methoxy-butyryl]-piperazine-1-carboxylic acid butyl ester]"
60 nM,21 nM,200 nM,"CCCCOC(=O)N1CCN(C(=O)[C@H](CC)NC(=O)c2cc(OCC(=O)N3CCC[C@H]3C(=O)NC3CCC3)n(-c3ccccc3)n2)CC1 [Example 233, 4-[(S)-2-({5-[2-((S)-2-Cyclobutylcarbamoyl-pyrrolidin-1-yl)-2-oxo-ethoxy]-1-phenyl-1H-pyrazole-3-carbonyl}-amino)-butyryl]-piperazine-1-carboxylic acid butyl ester]"
